The target of experiment [1] is T1, E-selectin-lg fusion protein (Homo sapiens, UniProt P16581).
T1 construct: Each selectin-lg contains the lectin domain, epidermal growth factor domain, and one (L-selectin-lg), two (P-selectin-lg) or six (E-selectin-lg) complement regulatory repeats; made in house
The experiment in a line: Competition ELISA: binding of E-selectin-Ig to immobilized BSA-sLe^x. To be noted: BSA-sLe^x competition ELISA. An excerpt: (§1) Selectin-lg fusion proteins are recombinant chimeric molecules containing extracellular regions of selectins coupled to the hinge, CH2, and CH3 regions of human IgG1 (Aruffo, A., et al., Cell, 67:35, 1991; Walz, G., et al., Science, 250:1132, 1990). Each selectin-lg contains the lectin domain, epidermal growth factor domain, and one (L-selectin-lg), two (P-selectin-lg) or six (E-selectin-lg) complement regulatory repeats of the parent molecules. DNAs encoding selectin-Ig inserted in pCDM7 allowed transient expression of recombinant proteins in COS cells as previously described (Seed, B., et al., Proc. Natl. Acad. Sci., U.S.A., 84:3365, 1987; Aruffo, A., Current Protocols In Molecular Biology, eds. Ausubel, F. M., et al, 16:13.1, Greene Publishing Associates and Wiley-lnterscience, New York, N.Y., 1992). These DNAs were also ligated into pNUT (Palmiter, R. D., et al, Cell, 50:435, 1987) for amplification and stable expression in BHK cells. The fusion proteins were affinity purified from culture media using protein A (Pierce Chemical Company, Rockford, Ill.) or protein G (Pharmacia, Piscataway, N.J.) Sepharose, as previously described (Aruffo, A., et al., Cell, 67:35, 1991; Aruffo, A., Current Protocols In Molecular Biology, eds. Ausubel, F. M., et al, supra, 1992). Competition binding ELISAs using P- and E-selectin-lg were performed essentially as described (Nelson, R. M., et al., J. Clin. Invest., 91:1157, 1993), except that the assay buffer was 20 mM HEPES pH 7.4, 150 mM NaCl, 2 mM CaCl2, and 0.25 mM thimerosal, containing 10 mg/ml BSA, protease-free, (Miles Inc., Kankakee, Ill.). Selectin concentrations were from 10 to 30 nM. […] To increase L-selectin binding, an assay similar to that previously described was used (Foxall, C., et al., J. Cell Biol., 117:895, 1992), in which the L-selectin-lg (10-20 nM) was allowed to form aggregates with HRP-conjugated anti-lg antibody for 30 minutes prior to addition of inositols and incubation on the BSA-sLe^x -coated plate. IC50 values were calculated by fitting binding data to the equation: fraction of maximal binding=IC50 […] using nonlinear least squares analysis software (Origin, Microcal Inc, Northampton, Mass.). InsP6 (dodecasodium salt), InsS6 (hexapotassium salt), myo-inositol 1 monophosphate (cyclohexylammonium salt), and myo-inositol were from Sigma Chemical Company (St. Louis, Mo.). Stock solutions were prepared daily in 0.9% NaCl and sterilized by 0.22 μm filtration. InsP6 solutions were adjusted at pH 7.4 with HCl.
(§2) L-, P-, or E-selectin-lg fusion proteins were incubated for 2-3 hours on microtiter plates coated with the neoglycoprotein BSA-sLe^x, the plates washed, and bound selectin-lg was detected using a peroxidase-conjugated antibody directed against the lg portion and a chromogenic substrate. To determine blocking activity, solution-phase lnsP6 (.circle-solid.), InsS6 (.largecircle.), or inositol (.box-solid.) at the indicated concentrations were added to the solutions containing selectin-Ig fusion proteins prior to transfer to microtiter plates (competition ELISA).
Background: ELISA stands for enzyme-linked immunosorbent assay.

The target of experiment [2] is T2, P-selectin-lg fusion protein (Homo sapiens, UniProt P16109).
T2 construct: Each selectin-lg contains the lectin domain, epidermal growth factor domain, and one (L-selectin-lg), two (P-selectin-lg) or six (E-selectin-lg) complement regulatory repeats; made in house
Kind of experiment: Competition ELISA: binding of P-selectin-Ig to immobilized BSA-sLe^x. To be noted: for IC50: read-out: IC50, P-selectin binding.
From the text: as §1, §2

Experiment [3] concerns PMN within the peritoneal cavity. Kind of experiment: Thioglycollate-induced peritoneal inflammation, PMN accumulation. The experiment is classed as in vivo, mice (Balb/c). To be noted: mice.
Experiment [4] has as its target T3, P-selectin (P-COS) (Homo sapiens, UniProt P16109).
T3 construct: adhesion of human PMN or HL60
T3 sequence (P16109 42-830): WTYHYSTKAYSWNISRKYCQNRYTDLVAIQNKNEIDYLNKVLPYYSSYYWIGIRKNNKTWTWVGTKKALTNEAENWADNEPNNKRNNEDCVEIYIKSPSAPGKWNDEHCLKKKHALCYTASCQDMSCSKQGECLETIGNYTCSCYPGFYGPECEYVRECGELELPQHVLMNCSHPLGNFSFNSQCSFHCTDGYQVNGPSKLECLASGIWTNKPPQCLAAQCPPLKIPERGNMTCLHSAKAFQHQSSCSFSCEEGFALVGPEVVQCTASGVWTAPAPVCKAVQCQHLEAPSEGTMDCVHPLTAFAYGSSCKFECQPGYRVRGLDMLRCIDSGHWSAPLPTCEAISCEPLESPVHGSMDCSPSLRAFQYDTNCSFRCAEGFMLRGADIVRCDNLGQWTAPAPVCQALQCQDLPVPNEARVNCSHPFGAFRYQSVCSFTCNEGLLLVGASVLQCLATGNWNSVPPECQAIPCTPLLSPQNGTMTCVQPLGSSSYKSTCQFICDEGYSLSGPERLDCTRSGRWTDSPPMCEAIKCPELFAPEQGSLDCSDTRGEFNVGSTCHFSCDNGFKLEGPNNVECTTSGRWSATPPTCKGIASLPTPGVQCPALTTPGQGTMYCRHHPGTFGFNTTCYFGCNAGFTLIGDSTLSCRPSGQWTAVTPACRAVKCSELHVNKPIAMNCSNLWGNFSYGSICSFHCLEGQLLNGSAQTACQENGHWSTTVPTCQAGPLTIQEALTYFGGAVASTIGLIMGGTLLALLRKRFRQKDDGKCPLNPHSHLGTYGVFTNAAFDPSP
The experiment in a line: PMN adhesion to P-selectin transfected COS cells (P-COS). The experiment is classed as cell-based. To be noted: for PMN adhesion to P-selectin transfected COS: inositol up to 10 mM, InsP6 0.5 mM. The protocol: COS-1 cells were transfected as described (Seed, B., et al., Proc. Natl. Acad. Sci., U.S.A., 84:3365, 1987; Aruffo, A., Current Protocols In Molecular Biology, eds. supra, 1992) with pCDM7/pCDM8 expression vectors containing the full-length E-, P- and L-selectin cDNA. Transfected COS-1 cells were seeded on gelatin coated coverslips.

Entries after “also recorded” stand apart in the source; their conditions may differ.

T1 sequence (P16581 with tags, fused parts or gaps limits assumed): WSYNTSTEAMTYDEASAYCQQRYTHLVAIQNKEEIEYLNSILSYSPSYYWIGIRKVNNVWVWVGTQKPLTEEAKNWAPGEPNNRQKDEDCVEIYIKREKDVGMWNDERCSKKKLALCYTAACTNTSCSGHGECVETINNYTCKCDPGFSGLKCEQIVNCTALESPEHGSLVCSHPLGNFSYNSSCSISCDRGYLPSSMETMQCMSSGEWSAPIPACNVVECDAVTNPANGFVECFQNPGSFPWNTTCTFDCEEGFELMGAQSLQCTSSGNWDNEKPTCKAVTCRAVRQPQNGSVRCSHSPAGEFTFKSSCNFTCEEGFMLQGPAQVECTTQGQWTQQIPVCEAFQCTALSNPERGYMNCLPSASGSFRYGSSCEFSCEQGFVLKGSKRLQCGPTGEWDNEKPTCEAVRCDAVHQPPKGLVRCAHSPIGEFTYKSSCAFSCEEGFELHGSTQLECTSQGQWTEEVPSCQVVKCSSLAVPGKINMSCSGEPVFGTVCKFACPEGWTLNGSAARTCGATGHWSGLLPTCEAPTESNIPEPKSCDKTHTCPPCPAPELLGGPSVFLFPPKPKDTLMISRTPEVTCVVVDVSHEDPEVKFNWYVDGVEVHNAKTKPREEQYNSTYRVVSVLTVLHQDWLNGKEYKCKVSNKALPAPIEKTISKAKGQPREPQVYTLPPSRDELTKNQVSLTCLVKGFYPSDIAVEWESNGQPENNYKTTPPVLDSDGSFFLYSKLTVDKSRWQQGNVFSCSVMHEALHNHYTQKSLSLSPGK
T2 sequence (P16109 with tags, fused parts or gaps limits assumed): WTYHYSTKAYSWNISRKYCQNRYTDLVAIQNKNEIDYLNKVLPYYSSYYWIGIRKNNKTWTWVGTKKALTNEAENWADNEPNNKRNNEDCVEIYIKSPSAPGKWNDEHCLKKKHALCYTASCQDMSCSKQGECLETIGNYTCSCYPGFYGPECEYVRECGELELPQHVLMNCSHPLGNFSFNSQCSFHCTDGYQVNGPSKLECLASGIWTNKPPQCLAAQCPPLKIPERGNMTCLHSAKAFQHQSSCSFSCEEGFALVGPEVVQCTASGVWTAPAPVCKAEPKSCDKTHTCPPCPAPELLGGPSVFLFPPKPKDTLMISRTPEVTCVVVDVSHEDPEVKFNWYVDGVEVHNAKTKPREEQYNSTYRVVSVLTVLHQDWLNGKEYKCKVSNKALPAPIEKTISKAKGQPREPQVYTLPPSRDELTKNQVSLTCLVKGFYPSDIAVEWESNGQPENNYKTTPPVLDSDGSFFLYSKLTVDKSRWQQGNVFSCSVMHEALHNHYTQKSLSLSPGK

One may read the IC50 as the concentration that gives 50% inhibition. Regarding `O=P(O)(O)O[C@H]1[C@H](OP(=O)(O)O)[C@@H](OP(=O)(O)O)[C@H](OP(=O)(O)O)[C@@H](OP(=O)(O)O)[C@H]1OP(=O)(O)O` [InsP6, myo-inositol hexakisphosphate], in experiment [1], the “inhibition of E-selectin-Ig binding” value is “failed to inhibit the binding of E-selectin-lg at concentrations up to 5 mM; also recorded: did not block E-selectin-lg binding”. In addition, in experiment [2] (BSA-sLe^x competition ELISA), the IC50 was 160 ± 40 µM. In experiment [2] (Ca^2+ reduced to 0.15 mM), the “blocking of P-selectin-Ig at reduced Ca^2+” value is “not enhanced”. For the same molecule, the “inhibition of PMN accumulation, single subcutaneous injection” value in experiment [3] (40-100 μmol/kg s.c. 3 min after thioglycollate) is 46-59%. For the same molecule, the “reduction in PMN recovered from the peritoneal cavity” value in experiment [3] (i.v. at 40 and 80 min, total 80 μmol/kg, PMN at 120 min, 3 experiments) is 58±3%. Also, the “PMN adhesion to P-selectin transfected COS” value in experiment [4] was “blocked PMN adhesion to P-COS”.
Take `O=S(=O)(O)O[C@H]1[C@H](OS(=O)(=O)O)[C@@H](OS(=O)(=O)O)[C@H](OS(=O)(=O)O)[C@@H](OS(=O)(=O)O)[C@H]1OS(=O)(=O)O` [InsS6, myo-inositol hexakissulfate]: the “inhibition of E-selectin-Ig binding” value in experiment [1] is on record as “failed to inhibit the binding of E-selectin-lg at concentrations up to 5 mM”. In addition, the IC50 in experiment [2] (BSA-sLe^x competition ELISA) stood at 3200 ± 500 µM. Moreover, the “inhibition of PMN accumulation, thioglycollate model” value in experiment [3] (400 μmol/kg, 1 experiment) is on record as 33±13%. Further, the inhibition at 5000 µM in experiment [4] (COS, 5 mM, read-out: blocking of PMN adhesion to P-selectin transfected COS) was 63%.
As to `O[C@H]1[C@H](O)[C@@H](O)[C@H](O)[C@@H](O)[C@H]1O` [myo-inositol, reference compound], the “blocking of P-selectin-Ig binding” value in experiment [2] (BSA-sLe^x competition ELISA) is given as “not myo-isositol, blocked binding”. For the same molecule, the “PMN adhesion to P-selectin transfected COS” value in experiment [4] was “no effect at concentrations up to 10 mM”.

These data come from patent publication US5827837A, “Polyanion anti-inflammatory agents” (priority 1996, dated 1998).
